Measured values from paper PMC11425212 (2024).

Experiments:
[1] = tested on: ATF4-G4 (Pu22T) (DNA, G4) TAAGGGAGGGAGGGAAGGGAGC; experiment: NMR solution structure and 1H NMR titration; conditions: 10 mM K+ (structure); 50 mM K+ (titration); pH 7, 25 °C; 2.11 mM DNA with 2.4 equivalents COP
[2] = tested on: ATF4-G4 (Pu22T) (DNA, G4) TAAGGGAGGGAGGGAAGGGAGC; experiment: fluorescence titration; conditions: 50 mM K+; 0.2 µM COP, DNA added stepwise; excitation 377 nm, emission 520-600 nm
[3] = tested on: ATF4-G4 (Pu22T) (DNA, G4) TAAGGGAGGGAGGGAAGGGAGC; experiment: CD melting at 264 nm; conditions: 5 mM K+ (potassium phosphate); pH 7; 20 µM DNA; COP concentration not given

- binding [1]: yes
- Kd [2]: ~ 3.9 µM
- ΔTm [3]: 25 °C
Compound: c1c2c(cc3c1OCO3)-c1cc3ccc4c(c3c[n+]1CC2)OCO4
